From patent US9700578B2, “Use of nitrite salts for the treatment of cardiovascular conditions” (The United States of America as represented by the …, priority 2003, dated 2017)

Assays:
[1] = Sodium nitrite infusion into the brachial artery, forearm blood flow by venous-occlusion plethysmography; settings: human, in vivo
Source text: (§1) The protocol was approved by the Institutional Review Board of the National Heart, Lung and Blood Institute, and informed consent was obtained from all volunteer subjects. […] An additional 10 subjects returned three-six months later for a second series of experiments with low dose nitrite infusion. […] No volunteer subject was allowed to take any medication (oral contraceptive agents allowed), vitamin supplements, herbal preparations, nutriceuticals or other “alternative therapies” for at least one month prior to study and were not be allowed to take aspirin for one week prior to study.
(§2) Brachial artery and antecubital vein catheters were placed into the arm, with the intraarterial catheter connected to a pressure transducer for blood pressure measurements and an infusion pump delivering normal saline at 1 mL/min. After 20 minutes of rest, baseline arterial and venous blood samples were obtained and forearm blood flow measurements were made by strain gauge venous-occlusion plethysmography, as previously reported (Panza et al., Circulation, 87, 1468-74, 1993). A series of 7 blood flow measurements were averaged for each blood flow determination. A series of measurements termed Parts I and II were performed in randomized order to minimize a time effect on the forearm blood flow response during nitrite infusion.
(§3) Part I: Following 20 minutes of 0.9% NaCl (saline) solution infusion at 1 mL/min into the brachial artery, arterial and venous blood samples were obtained for the assays described below and forearm blood flow measured. Exercise was performed by repetitive hand-grip at one-third of the predetermined maximum grip strength using a hand-grip dynamometer (Technical Products Co.) (Gladwin et al., Proc Natl Acad Sci USA, 97, 9943-8, 2000; Gladwin et al., Proc Natl Acad Sci USA, 97, 11482-11487, 2000; Cannon et al., J Clin Invest, 108, 279-87, 2001). Each contraction lasted for 10 seconds followed by relaxation for 5 seconds. Following 5 minutes of exercise, forearm blood flow measurements were obtained during relaxation phases of exercise, and arterial and venous samples collected. Following a 20-minute rest period with continued infusion of saline into the brachial artery, repeated baseline blood samples and forearm blood flow measurements were obtained. L-NMMA was then infused at a rate of 1 mL/min (8 μmol/min) into the brachial artery. Following 5 minutes of L-NMMA infusion, forearm blood flow was measured, and arterial and venous blood samples obtained. Forearm exercise was then initiated in that arm during continued L-NMMA infusion. Forearm blood flow was measured and blood samples obtained after 5 minutes of exercise during continued L-NMMA infusion (FIG. 1).
(§4) Part II: After a 30 minute rest period with continued infusion of saline, baseline measurements were obtained, the saline infusion was then stopped, and infusion of nitrite (NaNO2 36 μmol/ml in 0.9% saline) at 1 ml/min was started. […] For the final 9 subjects studied, 0.01-0.03 mM sodium bicarbonate was added to the normal saline, so as to titrate pH to 7.0-7.4. The nitrite solution was light protected and nitrite levels and free NO gas in solution measured by reductive chemiluminescence after all experiments (Gladwin et al., J Biol Chem, 21, 21, 2002).

forearm circulation = test: as above
Source text: as §1, §2, §3, §4

[2] = tested on: U46619-induced normoxic pulmonary hypertension; format: in vivo; settings: normoxic, U46619 infusion, nebulized nitrite, n=6
Method: This is a simple, inexpensive, and widely available clinical nebulizer system, though other systems could be used.
Six additional lambs were studied in order to evaluate the effects of nitrite nebulization on normoxic pulmonary hypertension. Stable normoxic pulmonary hypertension was induced by an infusion of a stable endoperoxide analog of thromboxane (U46619-9,11-dideoxy-11α-epoxymethano-prostaglandin F2α, Cayman Chemicals, Ann Arbor, Mich.). The drug was dissolved in saline and was administered at a rate of 2 μg/kg/min into the femoral venous catheter for 30 minutes. Nitrite was nebulized for inhalation during the last 20 minutes of the infusion (FIG. 11).

[3] = tested on: hypoxic-induced pulmonary hypertension; test: Comparison of inhaled nitrite and NO gas during hypoxic-induced pulmonary vasoconstriction: efficacy and duration; format: in vivo, newborn lambs; settings: for reduction (correction) of hypoxic-induced pulmonary hypertension: hypoxia, NO gas 20 ppm or nitrite aerosol for 20 minutes
Source text: NO gas was introduced into the inspiratory limb of the breathing circuit. The inspired concentration of NO was continuously measured by chemiluminescence (CLD 700 AL, Eco Physics Inc, Ann Arbor, Mich.) in the inspiratory limb of the ventilator loop.
efficacy and duration of effect. This protocol was designed to compare the efficacy of nitrite with the clinical standard, 20 ppm inhaled NO gas. […] A second purpose was to determine the duration of effect of a short nitrite nebulization versus NO gas inhalation on hemodynamic and physiological measurements during prolonged hypoxic-induced pulmonary vasoconstriction. After baseline measurements were performed, the lambs were made hypoxic as described above for 35 minutes. Ten minutes after initiation of hypoxia, a 20-minute period of NO gas inhalation was initiated (20 ppm), with continuation of hypoxia for 5 minutes after cessation of NO gas delivery. Lambs were then allowed to recover for one hour. Again, after baseline measurements were made, a second 90-minute period of hypoxia was initiated.

[4] = tested on: right middle cerebral artery vasospasm
Method: An autologous arterial blood clot was placed around the right middle cerebral artery (R MCA) of 14 anesthetized Cynomolgus monkeys at day 0. […] Cerebral arteriogram was performed before clot placement and on days 7 and 14, for assessment of DCV. Arteriographic vasospasm was defined as a 25% or greater reduction in the proximal 14 mm of the R MCA area as measured on the AP projection of the cerebral arteriogram (blinded assessment). Mean arterial blood pressure was measured and blood samples were collected daily from day 0; the cerebral spinal fluid samples were collected on day 0, 7, and 14.

[5] = tested on: deoxygenated erythrocytes
Method: To determine whether free NO radical can form from the reaction of nitrite and deoxyhemoglobin, 100 and 200 μM nitrite was mixed with 5 mL of 660 and 1000 μM deoxygenated erythrocytes in a light protected reaction vessel purged with helium or oxygen (both 21% and 100%) in-line with a chemiluminescent NO analyzer (Seivers, Boulder, Colo.). After allowing equilibration for 5 minutes, nitrite was injected and the rate of NO production measured. Nitrite was injected into PBS as a control and into 100 μM hemoglobin to control for the hemolysis in the 660 and 1000 μM deoxygenated erythrocyte solutions. At the end of all experiments the visible absorption spectra of the supernatant and erythrocyte reaction mixture was analyzed and hemoglobin composition deconvoluted using a least-squares algorithm.
To determine whether free NO radical can form from the reaction of nitrite and deoxyhemoglobin, 100 and 200 μM nitrite was reacted with deoxygenated erythrocytes (5 mL volume containing a total of 660 and 1000 μM in heme) in a light protected reaction vessel purged with helium in-line with a chemiluminescent NO analyzer (Seivers, Boulder, Colo.).

deoxyhemoglobin = deoxyhemoglobin (Homo sapiens, UniProt P68871+P69905); settings: 25° C., pH 7.0; cited from earlier work
aortic ring preparations = settings: cited from earlier work

Chain of deoxyhemoglobin (P69905 2-142 limits assumed): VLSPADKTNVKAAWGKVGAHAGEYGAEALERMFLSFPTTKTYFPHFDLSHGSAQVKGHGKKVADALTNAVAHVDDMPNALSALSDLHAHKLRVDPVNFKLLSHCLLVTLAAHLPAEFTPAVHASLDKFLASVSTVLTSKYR
Chain of deoxyhemoglobin (P68871 2-147 limits assumed): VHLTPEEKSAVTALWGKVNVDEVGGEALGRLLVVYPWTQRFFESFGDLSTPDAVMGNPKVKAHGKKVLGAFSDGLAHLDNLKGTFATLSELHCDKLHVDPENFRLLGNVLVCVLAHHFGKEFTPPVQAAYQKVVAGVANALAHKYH

O=NO [sodium nitrite]
concentration at 5 min ([1]; both, 36 μmol/min, nitrite level in the ipsilateral antecubital vein (regional forearm nitrite concentration), 36 μmol/min into brachial artery, 5 min, 18 healthy subjects): ~222000 nM
concentration at 5 min ([1]; 0.36 μmol/min, mean venous nitrite level after low-dose infusion, at rest, low dose, five-minute infusion, baseline 176±17): 2560 ± 462 nM
concentration at 5 min ([1]; 360 nmoles per minute, forearm nitrite concentration, low dose, at rest, dose reduced 2-logs (360 nmoles per minute)): ~2000 nM
increase in blood flow, low dose (forearm circulation; 360 nmoles per minute): about 22%
forearm blood flow after low-dose nitrite infusion (forearm circulation; 400 nmol/mL at 1 mL/min for five minutes, 10 subjects, baseline 3.49±0.24): 4.51±0.33 ml/min per 100 mL tissue
systemic level of nitrite (contralateral arm) (forearm circulation; 36 μmol/min into brachial artery): 16 µM
decrease of mean blood pressure (forearm circulation; 36 μmol/min into brachial artery, systemic nitrite 16 μM): approximately 7 mm Hg
venous hemoglobin oxygen saturation, pO2 and pH versus pre-infusion values (forearm circulation; 36 μmol/min, 5 min, at rest): significantly increased
forearm nitrite concentration, low dose, at rest (forearm circulation; dose reduced 2-logs (360 nmoles per minute)): 2 µM
forearm nitrite concentration, low dose, during exercise (forearm circulation; dose reduced 2-logs, exercise): 0.9 µM
venous nitrite level after low-dose infusion, during exercise (forearm circulation; low dose, exercise): 909 ± 113 nM
forearm blood flow 30 minutes after cessation of nitrite infusion (forearm circulation; saline for 30 min after infusion, pre-nitrite value 3.94±0.38): 4.79±0.37 mL/min per 100 mL tissue
systemic blood pressure 30 minutes after cessation of nitrite infusion (forearm circulation; saline for 30 min after infusion, pre-nitrite value 89.2±3.5): 82.1±3.7 mm Hg
decrease in pulmonary artery pressure from infusion baseline [2]: 23±6%
methemoglobin concentration after nitrite nebulization ([3]; baseline 2.1±0.1): 2.8±0.2%
duration of sustained vasodilation after discontinuation of inhalation ([3]; hypoxia continued 60 minutes after nebulization): more than 60 minutes
reduction (correction) of hypoxic-induced pulmonary hypertension [3]: about 60%
reduction (correction) of hypoxic-induced pulmonary hypertension ([3]; listed as nitrite): 60-70%
blood levels of nitrite ([4]; 45 mg/kg and 60 mg/kg per day): 10000 to 60000 nM
increases in blood methemoglobin concentrations ([4]; 45 mg/kg and 60 mg/kg per day): ≤ 2%
methemoglobin formation ([4]; 45 mg/kg and 60 mg/kg per day): < 5%
mean reduction in the R MCA area on day 7 after SAH ([4]; 45 mg/kg and 60 mg/kg per day i.v. for 14 days, saline 45±5): 8±9%
systemic hypotension ([4]; 14 days infusion): without systemic hypotension
toxicity ([4]; 14 days infusion): no clinical or pathological evidence of nitrite toxicity
development of significant vasospasm ([4]; nitrite infused animals, n=6): no animals developed significant vasospasm
NO release on addition to oxygenated erythrocytes ([5]; 21% and 100% oxygen, versus deoxygenated erythrocytes): significantly less NO
rate of NO production in the 5 mL reaction volume ([5]; 100 and 200 μM nitrite, deoxygenated erythrocytes 660 and 1000 μM in heme, helium purged): 47 pM per second
NO release into the gas phase in buffer control ([5]; PBS, same conditions): no release
rate constant of nitrite reduction to NO and methemoglobin (deoxyhemoglobin): 2.9 M⁻¹ s⁻¹
nitrite concentration that stimulated vasodilation of aortic ring preparations (aortic ring preparations; Furchgott et al. 1953): 100 µM
levels of nitrite shown to vasodilate in vitro (aortic ring preparations; literature): > 100,000 nM
